Test in all cases: growth of human tumour cells (NCI), 48 h
Test [1] relates to A498 renal.
Test [2] has as its system DU-145 prostate.
Test [3] relates to SN12C renal.
The subject of test [4] is HCT-15 colon.
Test [5] has as its system NCI-H522 lung.
Test [6] relates to HL-60(TB) leukemia.
In test [7] the test system is 786-0 renal.
Test [8] relates to HCT-116 colon.
For test [9], the system named is MCF7 breast.
Test [10] relates to NCI-H460 lung.
The subject of test [11] is SNB-75 CNS.

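Five compound concentrations were applied to cells in 96-well plates for 48 hours; endpoints were derived by simple linear interpolation of the resulting dose-response curve. At the TGI there is no net growth.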 Bounds are passed on as bounds.

For `CCOC(CN(C)C(=O)Nc1ccc(Cl)c(Cl)c1)OCC`, the TGI in test [1], in test [2], in [3], in [4], in [5] and in test [6] was greater than 10 µM each time. The TGI in [7], in test [8], in test [9], in test [10] and in [11] was greater than 10 µM each time.

Consider `O=C1C(Cl)=C(N2CCN(CCOCCO)CC2)C(=O)c2ccccc21`, for which the TGI in [1] turned out to be 33.4 µM; in [2] it was 34 µM; in [3] it was 28.8 µM; in [4] it was 24.4 µM; in test [5], 3.57 µM; in test [6] it was 14 µM. The TGI amounted to 24 µM in test [7]; 11.1 µM in test [8]; 14.4 µM in [9]; 32.8 µM in test [10]; 27.7 µM in test [11].

As for `CC(C)C1CC(CO)(CNc2nc(N)nc(Cl)c2/C=N\O)C1` (centres undefined), the TGI was 34.6 µM in [1]; greater than 100 µM in [2]; greater than 89.5 µM in test [3]; 32.7 µM in [4]; 22.4 µM in test [5]; 29.1 µM in test [6]. The TGI was 46.4 µM in test [7]; 34 µM in [8]; 4.27 µM in test [9]; 3.14 µM in [10]; 43.6 µM in test [11].

With `O=S(=O)(Nc1nccs1)c1ccc([As](=O)(O)O)cc1`, the TGI in test [1], in [2], in [3], in test [4], in [5] and in test [6] was greater than 100 µM throughout. Besides, the TGI in [7], in test [8], in test [9], in test [10] and in test [11] was greater than 100 µM throughout.

For the compound `CC(=O)Nc1ncc2c(n1)-c1ccccc1OC2c1ccccc1` (centres undefined), the TGI in test [1] was 51.6 µM; in [2], greater than 100 µM; in [3] it was greater than 100 µM; in [4] it was greater than 100 µM; in [5] it was greater than 100 µM; in [6], greater than 100 µM. For the same compound, the TGI in test [7] is 38.2 µM; in test [8] it was greater than 100 µM; in test [9] it was greater than 100 µM; in test [10] it was greater than 100 µM; in test [11] it was 40.5 µM.

In the case of `COc1ccc(Cc2cc(OC)c(OC)c(OC)c2)cc1`, the TGI is 24.6 µM in test [1]; 6.38 µM in test [2]; greater than 89.3 µM in test [3]; greater than 30.9 µM in test [4]; 0.798 µM in test [5]; 0.308 µM in test [6]. The TGI was greater than 100 µM in [7]; 12.4 µM in test [8]; greater than 100 µM in [9]; 47 µM in test [10]; greater than 18.5 µM in test [11].

As to `Cc1ccc(S(=O)(=O)NN=C2C(C)(C)CC2(C)C)cc1`, the TGI in test [1], in test [2], in test [3], in [4], in test [5] and in [6] was greater than 100 µM each time. The TGI in test [7], in test [8], in [9], in test [10] and in test [11] was greater than 100 µM each time.

On to `COc1ccc(OC)c(N=Cc2cc(OC)c(OC)c(OC)c2)c1`, for which the TGI was greater than 100 µM in [1]; greater than 100 µM in [2]; greater than 100 µM in test [3]; greater than 100 µM in [4]; 57.7 µM in test [5]; greater than 100 µM in [6]. Further, the TGI in [7], in test [8], in test [9], in [10] and in test [11] was greater than 100 µM in each case.

For the compound `O=[N+]([O-])c1ccc(Cc2nc3cc4ccccc4cc3[nH]2)cc1C(F)(F)F`, the TGI is 33.5 µM in test [1]; 57.2 µM in test [2]; 38 µM in test [3]; greater than 100 µM in test [4]; 70.6 µM in test [5]; greater than 100 µM in test [6]. The TGI in test [7] came to 25.4 µM; in test [8], 26.8 µM; in test [9], 55.5 µM; in test [10], 38.5 µM; in test [11], 37.3 µM.

For the origin of these results see PubChem BioAssay (NCI).
